“Also recorded” adds a separate entry of the source. Marks after values point to notes of the source that are not given here.
What was measured:
[1] = tested on: Alpha-glucosidase (EC 3.2.1.20); assay: Alpha-Glucosidase Inhibition Assay; type: biochemical; details: for Alpha-glucosidase inhibitory activity, in words / alpha-Glucosidase inhibition (%): 0.1 mg/mL final concentration
Description: Alpha-Glucosidase Inhibition Assay.
The assay was performed according to the 126 Journal of Natural Products, 2008. Vol. 71. No. 1 Notes
method described by Oki and co-workers, with slight modifications.^13 alpha-Glucosidase was purchased from Toyobo Co., Ltd. (Osaka. Japan). The enzyme solution was prepared by dissolving 0.6 U/mL of Alpha-glucosidase in 100 mM phosphate buffer (pH 7) containing 2 g/L bovine serum albumin and 0.2 g/L NaN3. p-Nitrophenyl-R-D-glucopyranoside (5 mM) in the same buffer solution (pH 7) was used as a substrate solution. The enzyme solution (50 μL) and the test compounds (10 μL), dissolved in DMSO to a final concentration of 0.1 mg/mL, were mixed in each well of the microliter 96-well culture plates and measured spectrophotometrically (absorbance 405 nm) at zero time, using a microplate reader (Bio-Rad model 550 microplate reader). The mixture was preincubated for 5 min at room temperature before the addition of substrate solution ([…]) and followed by a 5 min incubation at room temperature. The increase in absorbance from zero time was measured. The inhibitory activity was expressed as […] minus the relative absorbance difference (%) of test compounds to absorbance change of the control where the test solution was replaced by DMSO. 1-Deoxynojirimycin (Wako Pure Chemical Industries, Ltd.) 0.3 mM in DMSO was used as a positive control.

[2] = tested on: Alpha-glucosidase (EC 3.2.1.20); details: reported in references 2 and 3; cited from earlier work
[3] = tested on: adult female Aedes aegpti; assay: Blood-feeding bioassay (mosquito repellency, membrane feeder); type: in vivo, Aedes aegypti; details: 20.8 μg/cm^2 on nylon fabric covering the blood source, 1 h
Excerpt: FIG. 8 is a graph showing repellent efficacy of CINEX and CDIAL (OSU-1) compared to DEET, an industry standard. Values are means±SEM; N=31, 9, 5, and 15 respectively for Control, DEET, CINEX, and CDIAL. Lower-case letters indicate statistical categorization of the means as determined by a one-way ANOVA with a Newman-Keuls posttest (P<0.05).
We used a blood-feeding bioassay to test the efficacy of OSU-1 (CDIAL) and the C. fragrans bark extract (CINEX) to repel mosquitoes from feeding on a blood source. In brief, cages of 20 mosquitoes (adult female Aedes aegpti) were starved for 24 h before being allowed to feed on a membrane feeder (Hemotek) containing defibrinated rabbit blood. After 1 h, the mosquitoes were immobilized on ice and the number of individuals with blood in their abdomen was counted. The membrane feeder maintains the blood at a constant temperature of 37° C. (human body temperature) and is covered with a collagen membrane that mimics human skin. Mosquitoes pierce through the collagen membrane with their proboscis to obtain the blood. […] Lower-case letters indicate statistical categorization of the means as determined by a one-way ANOVA with a Newman-Keuls posttest (P<0.05).

C. pipiens larvae = assay: Larval mosquito toxicity, compound added to rearing water, 24 h; type: in vivo, Culex pipiens; details: 24 h after adding to rearing water
Description: (§1) The concentration/dose-toxicity relationships for Ae. aegypti from FIG. 4 are superimposed to facilitate comparisons.
(§2) Each compound of cinnamodial (CDIAL), cinnafragrin A (CM18) and cinnamosmolide (CMOS) were isolated form the barks of the Madagascan plants Cinnamosma fragrans, Cinnamosma macrocarpa and Cinnamosma madagascariensis. Each was dissolved in 100% acetone and applied directly to the cuticle of adult female mosquitoes (Aedes aegypti, Anopheles gambiae, and Culex pipiens) or 3rd instar nymph soybean aphids (Aphis glycines). The bark extract and the isolated compounds was toxic to larval and adult female mosquitoes within 24 hr in a concentration/dose dependent manner (FIGS. 4 and 5). Among the isolated compounds.

[4] = tested on: A. aegypti 1st instar larvae; assay: as above; type: in vivo, Aedes aegypti; details: for Larval mosquitoes EC50 in ppm (95% CI), A. aegypti: larvae, 24 h after adding to rearing water
Description: (§3) A,C) Concentration-toxicity relationships in 1st instar larvae 24 h after adding CINEX or indicated compound to the rearing water. B,D) Dose-toxicity relationships in adult females 24 h after applying CINEX or indicated compound to the thoracic cuticle. CDIAL=OSU-1.
as §2

C. pipiens adult females = assay: Adult female mosquito toxicity, applied to thoracic cuticle, 24 h; type: in vivo, Culex pipiens; details: 24 h after applying to thoracic cuticle, in acetone
Description: as §1, §2

A. aegypti adult females = assay: as above; type: in vivo, Aedes aegypti; details: for Adult female mosquitoes ED50 in μg/mg mosquito (95% CI), A. aegypti: adult females, 24 h after applying to thoracic cuticle, in acetone
Description: as §3, §2

A. gambiae adult females = assay: as above; type: in vivo, Anopheles gambiae; details: 24 h after applying to thoracic cuticle, in acetone
Description: as §1, §2

[5] = tested on: soybean aphid Aphis glycines; assay: Soybean aphid toxicity, applied to cuticle of 3rd instar nymphs, 24 h; type: in vivo; details: for ED50 in aphids: 3rd instar nymphs, 24 h after application to cuticle
Description: Dose-toxicity relationships in 3rd instar nymphs 24 h after adding CINEX or indicated compound to the thoracic cuticle. CDIAL=OSU-1.
as §2

A. gambiae larvae = assay: Larval mosquito toxicity, compound added to rearing water, 24 h; type: in vivo, Anopheles gambiae; details: 24 h after adding to rearing water
Description: as §1, §2

Compound	Larval mosquitoes EC50 in ppm (95% CI), A. aegypti [4]	Adult female mosquitoes ED50 in μg/mg mosquito (95% CI), A. aegypti (A. aegypti adult females)	ED50 in aphids [5] [μg/aphid]	Alpha-glucosidase inhibitory activity, in words [1]	alpha-Glucosidase inhibition (%) [1]	further results
OC[C@H]1NC[C@H](O)[C@@H](O)[C@@H]1O [1-deoxynojirimycin, reference compound]	–	–	–	–	–	alpha-Glucosidase inhibition (%), positive control ([1]; 0.3 mM in DMSO, positive control): 100%
CC(=O)O[C@@H]1C=C(C=O)[C@@](O)(C=O)[C@@]2(C)CCCC(C)(C)C12 (stereo partly shown) [CDIAL, cinnamodial]	21.6 ppm	0.09 μg/mg mosquito	0.38	most potent activity	83.7%	Alpha-glucosidase inhibition, in words, from earlier papers [2]: strong inhibition; Percentage of mosquitoes feeding on a blood source, in words [3]: significantly reduced; Larval mosquitoes EC50 in ppm (95% CI), C. pipiens (C. pipiens larvae): 13.3† ppm; Toxicity to larval mosquitoes, in words ([4]; within 24 hr, concentration dependent): most potent and efficacious; Adult female mosquitoes ED50 in μg/mg mosquito (95% CI), C. pipiens (C. pipiens adult females): 0.17† μg/mg mosquito; Toxicity to adult female mosquitoes, in words (A. aegypti adult females; within 24 hr, dose dependent): most potent and efficacious; Adult female mosquitoes ED50 in μg/mg mosquito (95% CI), A. gambiae (A. gambiae adult females): 0.05† μg/mg mosquito; Toxicity to aphids, in words ([5]; within 24 h of application): most potent; Larval mosquitoes EC50 in ppm (95% CI), A. gambiae (A. gambiae larvae): 29.8 ppm
CC(=O)O[C@@H]1C=C(C2OC3OC(O)C4=C[C@@H](OC(C)=O)C5C(C)(C)CCC[C@]5(C)[C@]43O2)[C@@](O)(C=O)[C@@]2(C)CCCC(C)(C)C12 (stereo partly shown) [CM18, cinnafragrin A]	22.6 ppm	2.03* μg/mg mosquito	1.7	–	–	–
CC(=O)O[C@@H]1C=C2C(=O)OCC2(O)[C@@]2(C)CCCC(C)(C)C12 (stereo partly shown) [CMOS, cinnamosmolide]	134.4* ppm	3.94* μg/mg mosquito	2.5	–	20.0%	–
COC1OC(OC)C2(O)C1=CC(OC(C)=O)C1C(C)(C)CCCC12C (stereo not shown) [Compound 2, cinnamodial 11R,12-dimethyl acetal]	–	–	–	–	not active	–
CC1(C)CCC[C@@]2(C)[C@H]1[C@H](O)C=C1C(=O)OC[C@]12O [Compound 3, pereniporin B]	–	–	–	–	7.2%	–
CC(=O)O[C@@H]1[C@@H](O)C2=C(C(=O)OC2)[C@@]2(C)CCCC(C)(C)[C@H]12 [Compound 4, ugandensolide]	–	–	–	moderate effects; also recorded: moderate activity	46.2%	–
CC1(C)CCC[C@]2(C)[C@@H](C=O)C(C=O)=CC[C@@H]12 [Compound 5, polygodial]	–	–	–	only slight activity; also recorded: did not show any activity	2.1%	–
CC1(C)CCC[C@]2(C)[C@H](C=O)C(C=O)=CC[C@@H]12 [isopolygodial, reference compound]	–	–	–	–	–	Alpha-glucosidase inhibition, in words, from earlier papers [2]: did not show any activity
cinnamadin [Compound 1]	–	–	–	moderate effects	14.9%	–

Reference: patent publication US20190150437A1, “USE OF SESQUITERPENES AND THEIR ANALOGS AS GREEN INSECTICIDES FOR CONTROLLING DISEASE VECTORS AND PLANT PESTS” (Ohio State Innovation Foundation, priority 2016, published 2019)
